The text below walks through data of publication PMC7796460, “Relation of Metal-Binding Property and Selective Toxicity of 8-Hydroxyquinoline Derived Mannich Bases Targeting Multidrug Resistant Cancer Cells” (Cancers, 2021).

Read-outs that look alike come from different tables or passages of the source.

For data set [1], the system named is MES-SA cells. Description: MTT viability assay, MES-SA. The class given is cell-based, human. An excerpt: (§1) MDCK II canine kidney cells, A431 epidermoid carcinoma cells, the human uterine sarcoma cell lines MES-SA and the doxorubicin selected MES-SA-Dx5 were obtained from ATCC (MDCK II: No. CRL-2936™, A431: No. CRL-1555™, MES-SA: No. CRL-1976™, MES-SA/Dx5: No. CRL-1977™). ABCB1 was expressed in A431 and MES-SA cells using lentiviral transduction. The human cervix carcinoma cell line KB-3-1 and the vinblastine selected KB-v1were kind gifts from Dr. Michael M. Gottesman, National Institutes of Health. The phenotype of the resistant cells was verified using cytotoxicity assays. MDCK-B1 and MDCK-MM were established by the Sleeping Beauty transposon-based gene delivery system. OVCAR-8 and NCI-ADRres cells (obtained from the Division of Cancer Treatment and Diagnosis (DCTD) Tumor Repository (National Cancer Institute, Frederick, MD, USA)) were cultivated in RPMI-1640 (Sigma Aldrich, Budapest, Hungary), and other cell lines were cultivated in Dulbecco’s Modified Eagle Medium (DMEM, Sigma Aldrich, Budapest, Hungary), supplemented with 10% fetal bovine serum, 5 mM glutamine, and 50 unit/mL penicillin and streptomycin (Life Technologies, Carlsbad, CA, USA). All cell lines were cultivated at 37 °C, 5% CO2.
(§2) MTT viability assays were performed as described earlier with minor modifications. Briefly, cells were seeded into 96-well tissue culture plates (Sarstedt, Newton, NC, USA/Orange, Braine-l’Alleud, Belgium) at a density of 5000 cells/well and allowed to attach overnight. Test compounds were added to achieve the required final concentration in a final volume of 100 µL per well. After an incubation period of 72 h, the supernatant was removed and fresh medium containing the MTT reagent (0.083 mg/mL) was added. Incubation with MTT at 37 °C was terminated after 1 h by removing the supernatant and lysing the cells with 100 µL DMSO per well. Viability of the cells was measured spectrophotometrically based on the absorbance values at 540 nm using either a Perkin Elmer Victor X3 or an EnSpire microplate reader. Data were background corrected by subtraction of the signal obtained from unstained cell lysates and normalized to untreated cells. Curves were fitted by Prism software (GraphPad Software Inc., San Diego, CA, USA) using the sigmoidal dose-response model (comparing variable and fixed slopes). […] Significance was calculated using unpaired t-tests; results are given as *: p ≤ 0.05, **: p ≤ 0.01, ***: p ≤ 0.001, ****: p ≤ 0.0001.

Data set [2] deals with MES-SA/Dx5 cells. As to the kind of experiment: MTT viability assay, MES-SA/Dx5. The data set is classed as cell-based, human. To be noted: for SR: Table S1, IC50 Pgp negative divided by Pgp positive cells; for SR_TQ: Table S1, presence of 1 µM TQ.
Excerpt: as §1, §2

Data set [3] relates to MES-SA cells. Description: ROS determination with DCFDA, MES-SA. The data set is classed as cell-based, human. To be noted: 2 h. Here is the method: (§3) Measurements were performed as described earlier. Briefly, cells were harvested, washed with PBS, and incubated with 10 µM DCFDA in a water bath shaker at 37 °C for 30 min in a density of 3 × 10^6 cells/mL. After washing with PBS, cells were seeded to 96-well plates in PBS in a density of 2 × 10^4 cells/well. Following the measurement of the basal fluorescence, test compounds were added in different concentrations and the fluorescence of the samples was followed at time intervals of 10 min. DCFDA solution in buffer was used as a cell free control to test for interaction of the test compounds with DCFDA. Data were analyzed as fold change of fluorescence compared to basal levels and untreated cells. Significance was calculated using unpaired t-tests; results are given as *: p ≤ 0.05, **: p ≤ 0.01, ***: p ≤ 0.001, ****: p ≤ 0.0001.
(§4) Table S3: Characterization of intracellular ROS production with the DCFDA assay for P -gp negative MES-SA and P-gp positive MES-SA/Dx5 cells. Fold changes in fluorescence are shown after a 2 h with the investigated 8 -hydroxyquinoline ligands. Data S-refer to Figure 7 and allow […]
(§5) concentration range from 6.25µ M to 50µ M. Fold change of fluorescence obtained in the presence of 5 mM NAC is given in brackets.

For data set [4], the system named is MES-SA/Dx5 cells. Description: ROS determination with DCFDA, MES-SA/Dx5. The data set is classed as cell-based, human. To be noted: 2 h. Here is the method:
as §3, §4, §5

The nature of data set [5]: pKa by UV-visible spectrophotometric titrations. The data set is classed as physicochemical. The conditions noted are these: 0.2 M KCl (ionic strength), T = 25 °C, I = 0.2 M (KCl).
Where [6] appears, read: Table S1, calculated as ligand equivalents, presence of 1 µM TQ, read-out: IC50 MES-SA_TQ.
[7] abbreviates: Table S1, ligands and in situ preformed complexes, calculated as ligand equivalents, absence of TQ, read-out: IC50 MES-SA.
Where [8] appears, read: Table S1, calculated as ligand equivalents, absence of TQ, read-out: IC50 Dx5.
The mark [9] stands for this setting: Table S1, calculated as ligand equivalents, presence of 1 µM TQ, read-out: IC50 Dx5_TQ.
The mark [10] stands for this setting: Homo sapiens, MES-SA, Table 2, value outside brackets, read-out: MES-SA (toxicity, Table 2).
Setting [11] is: Homo sapiens, MES-SA/Dx5, Table 2, value outside brackets, read-out: MES-SA/Dx5 (toxicity, Table 2).
The mark [12] stands for this setting: Table 2, value outside brackets.
Where [13] appears, read: group named in the cell (NmorpholiniumH+, NpiperidiniumH+, NbenzylamineH2+), read-out: pKa (additional).

For `[Fe+3].[O-]c1c(CN2CCCCC2)ccc2cccnc12.[O-]c1c(CN2CCCCC2)ccc2cccnc12.[O-]c1c(CN2CCCCC2)ccc2cccnc12` [1/3 [Fe(Q-3)3]], the IC50 in the data set on MES-SA cells [1] (setting [6]) was 1.82 ± 0.71 µM; in the data set with MES-SA cells [1] (setting [7]) it was 2.12 ± 0.68 µM; in the data set with MES-SA/Dx5 cells [2] (setting [8]), 0.91 ± 0.22 µM; in the data set with MES-SA/Dx5 cells [2] (setting [9]), 1.45 ± 0.25 µM. The compound also registered an SR in the data set on MES-SA/Dx5 cells [2] (absence of TQ) of 2.33. Besides, the SR_TQ in the data set with MES-SA/Dx5 cells [2] is reported as 1.25.
With `[Fe+3].[O-]c1c(CNCc2ccccc2F)cc(Cl)c2cccnc12.[O-]c1c(CNCc2ccccc2F)cc(Cl)c2cccnc12.[O-]c1c(CNCc2ccccc2F)cc(Cl)c2cccnc12` [1/3 [Fe(Q-4)3]], the IC50 was 3.54 ± 0.13 µM with MES-SA cells [1] (setting [6]), 2.95 ± 1.33 µM in the data set on MES-SA cells [1] (setting [7]), 0.22 ± 0.12 µM in the data set on MES-SA/Dx5 cells [2] (setting [8]) and 3.45 ± 0.33 µM with MES-SA/Dx5 cells [2] (setting [9]). Besides, the SR in the data set on MES-SA/Dx5 cells [2] (absence of TQ) was found to be 13.14. For the same compound, the SR_TQ in the data set on MES-SA/Dx5 cells [2] is given as 1.03.
`Oc1ccc(Cl)c2cccnc12` [Compound 5-Cl-Q-1]: the IC50 was 10.4 ± 1.71 µM in the data set with MES-SA cells [1] (setting [10]) and 9.66 ± 2.48 µM in the data set with MES-SA/Dx5 cells [2] (setting [11]). In addition, the “SR MES-SA/Dx5 (Table 2)” value in the data set on MES-SA/Dx5 cells [2] (Table 2, value in brackets (Tariquidar as in Table 1)) was found to be 1.46; in the data set on MES-SA/Dx5 cells [2] (setting [12]), 1.08. Besides, the “Fold change in fluorescence (DCFDA)” value with MES-SA cells [3] (6.25 µM) is 1.147± 0.32; with MES-SA cells [3] (6.25 µM, presence of 5 mM NAC (brackets)), 1.668± 0.35; in the data set with MES-SA cells [3] (12.5 µM), 1.119± 0.30; in the data set with MES-SA cells [3] (12.5 µM, presence of 5 mM NAC (brackets)), 1.418± 0.24; with MES-SA cells [3] (25 µM), 1.071± 0.35; with MES-SA cells [3] (25 µM, presence of 5 mM NAC (brackets)), 1.443± 0.22. Besides, the “Fold change in fluorescence (DCFDA)” value came out at 0.891± 0.34 in the data set with MES-SA cells [3] (50 µM); 1.209± 0.23 in the data set with MES-SA cells [3] (50 µM, presence of 5 mM NAC (brackets)); 1.203± 0.32 in the data set with MES-SA/Dx5 cells [4] (MES-SA/Dx5, 6.25 µM); 1.279± 0.21 in the data set on MES-SA/Dx5 cells [4] (MES-SA/Dx5, 6.25 µM, presence of 5 mM NAC (brackets)); 1.291± 0.48 in the data set on MES-SA/Dx5 cells [4] (MES-SA/Dx5, 12.5 µM); 1.187± 0.23 with MES-SA/Dx5 cells [4] (MES-SA/Dx5, 12.5 µM, presence of 5 mM NAC (brackets)). Besides, the “Fold change in fluorescence (DCFDA)” value in the data set on MES-SA/Dx5 cells [4] (MES-SA/Dx5, 25 µM) is reported as 1.355± 0.46; in the data set with MES-SA/Dx5 cells [4] (MES-SA/Dx5, 25 µM, presence of 5 mM NAC (brackets)), 1.220± 0.22; in the data set on MES-SA/Dx5 cells [4] (MES-SA/Dx5, 50 µM), 1.206± 0.49; in the data set on MES-SA/Dx5 cells [4] (MES-SA/Dx5, 50 µM, presence of 5 mM NAC (brackets)), 1.152± 0.06.
With `CC(=O)N[C@@H](CS)C(=O)O` [NAC, N-acetyl cysteine, reference compound], the “Effect on viability of the cells, alone” value was “did not influence the viability” with MES-SA cells [1] (5 mM, MES-SA) and “did not influence the viability” in the data set on MES-SA/Dx5 cells [2] (5 mM, MES-SA/Dx5).
As to `Oc1c(CN2CCOCC2)ccc2ccccc12` [NC-2, 2-(morpholino-methyl)naphthalen-1-ol], the values for the IC50 in the data set on MES-SA cells [1] (setting [10]) and in the data set on MES-SA/Dx5 cells [2] (setting [11]) were 422 ± 34.9 µM and 562 ± 36.8 µM, respectively. The “SR MES-SA/Dx5 (Table 2)” value with MES-SA/Dx5 cells [2] (setting [12]) is 0.75. For the same compound, the figures for the pKa in data set [5] (setting [13]) and in data set [5] (read-out: pKa (OH)) were 6.61 ± 0.02 and 9.21 ± 0.02, respectively.
For the compound `Oc1c(CN2CCCCC2)ccc2ccccc12` [NC-3, 2-(piperidin-1-ylmethyl)naphthalen-1-ol], the IC50 is 140 ± 47.9 µM in the data set on MES-SA cells [1] (setting [10]) and 163 ± 16.6 µM in the data set with MES-SA/Dx5 cells [2] (setting [11]). In the data set on MES-SA/Dx5 cells [2] (setting [12]), the “SR MES-SA/Dx5 (Table 2)” value is on record as 0.86. The pKa in data set [5] (setting [13]) amounted to 10.12 ± 0.01; in data set [5] (read-out: pKa (OH)), 6.06 ± 0.01.
As for `Oc1c(CNCc2ccccc2F)ccc2ccccc12` [NC-4, 2-((2-fluorobenzylamino)methyl)naphthalen-1-ol], the figures for the IC50 in the data set with MES-SA cells [1] (setting [10]) and in the data set with MES-SA/Dx5 cells [2] (setting [11]) were 44.7 ± 4.52 µM and 31.1 ± 2.17 µM, respectively. Also, the “SR MES-SA/Dx5 (Table 2)” value in the data set on MES-SA/Dx5 cells [2] (setting [12]) stood at 1.44. Besides, the results for the pKa in data set [5] (setting [13]) and in data set [5] (read-out: pKa (OH)) were 9.72 ± 0.02 and 5.5 ± 0.02, respectively.
